In US6864356B2, “Sixteen amino acid of the antineoplastic protein (ANUP) as a pharmacologically active anti-tumor agent” (priority 1997, dated 2005):
Non-standard residues stand in square brackets, D forms with d. No end group written: not given here. pGlu = O=C1CC[C@@H](C(=O)O)N1

How the values were obtained:
[1] = system: human breast tumor cell line (MDA 231); assay: in vitro antitumor (tumor killing) assay, neutral red dye, 96 well plates; type: cell-based; details: MDA 231 cells
Experimental: The antitumor activity of the peptide (P16) was assayed against the human breast tumor cell line (MDA 231) and its activity was compared to the in vitro antitumor effect of the “pure” protein (ANUP).
The assay for the pharmacological antitumor activities were performed as follows utilizing 96 well plates—
20,300-30,000 human breast tumor cells in L-15 medium (200 μl) containing 2.5% fetal calf serum and 100 μg gentamycin per ml (complete medium) were incubated at 37° in air for 120 hours; after this incubation period 50 μl of serially diluted P16 and ANUP were added to each well. […] The solutions were diluted in complete medium containing 0.05% SDS to a concentration of 350 μg per ml.
Dilution plates were prepared as follows:
100 μl of complete medium were added to each well and 50 μl of diluted P16 and ANUP were added to each well in row A thus 1.3 dilution was accomplished; 50 μl were serially diluted in the 100 μl of medium in rows B through H. Thus the range of concentrations were from 6 μg to 2 mg when 50 μl each dilution series were added to the 200 μl of the complete medium containing the MDA cells. The plates were incubated for an additional 96-120 hours. The medium was poured off and after a 90-minute incubation with 50 μl neutral red dye (0.5 ml neutral red (0.25% ethanol (0.6 ml) diluted 5.5 saline-0.16 mm HCl) the cells were washed twice with PBS (phosphate buffer saline) at room temperature. The concentration of living cells (since only living cells absorb the dye) was determined after adding 100 μl lysing buffer (50% ethanol in 0.05 m NaH2 PO4) the concentration of neutral red released in each well was determined using a Dynetech plate reader set at […]. A unit of activity was defined as the concentration of ANUP and P16 for 50% killing.

tumor cells = details: electron microscopy (Struve et al. 1990); cited from earlier work

For “synthetic hexadeca peptide (16 L-amino acids), partial N-terminal sequence of ANUP: Pyroglu-Leu-Lys-Cys-Tyr-Thr-Cys-Lys-Glu-Pro-Met-Thr-Ser-Ala-Ala-Cys (SEQ ID NO: 1) ([pGlu]LKCYTCKEPMTSAAC; cysteine pairing not given here) [P16]”, the “Fraction of the Activity relative to ANUP” value ([1]; + 0.005% SDS) was 0.04, the “Fraction of the Activity relative to ANUP” value ([1]; + 0.02% SDS) was 0.50 and the “Fraction of the Activity relative to ANUP” value ([1]; + 0.05% SDS) was 0.50. The “antitumor activity in the absence of SDS” value ([1]; absence of SDS) was “neither the peptide nor the protein showed any antitumor activity”, the “activity compared to the protein (ANUP), molar basis” value ([1]; in vitro) was “about 50%” and the IC50 ([1]; medium containing SDS, 96-120 hours incubation, read-out: 50% end point (concentration for 50% killing)) was 0.022 µM. For the same substance, the “Fraction of the Activity relative to ANUP” value ([1]; no SDS) was “± no Activity”, the “weight of peptide required relative to weight of protein (ANUP) for equal activity” value ([1]; weight basis) was “one tenth” and the “effect on tumor cells by electron microscopy” value (tumor cells) was “complete degradation of the cells”.
